Test results as given in publication PMC6232145, “Intrinsic disorder in the regulatory N-terminal domain of diacylglycerol acyltransferase 1 from Brassica napus” (Scientific Reports, 2018).

Experiments:
[1] = biological target: T1, Brassica napus diacylglycerol acyltransferase 1 (BnaDGAT1, isoform BnaC.DGAT1.a) (Brassica napus, UniProt Q9M4V2); assay: ITC ([…] stoichiometry); supported by CD; format: binding
T1 construct: gene DGAT1-4; BnaDGAT1_1-113, cytoplasmic N-terminal domain (residues 1-113), N-terminal 10 x His-tag
T1 sequence (Q9M4V2 1-113): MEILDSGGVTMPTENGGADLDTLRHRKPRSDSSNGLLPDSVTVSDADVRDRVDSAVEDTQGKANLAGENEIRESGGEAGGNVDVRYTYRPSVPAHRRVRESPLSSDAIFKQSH

[2] = biological target: T1, Brassica napus diacylglycerol acyltransferase 1 (BnaDGAT1, isoform BnaC.DGAT1.a); assay: ITC ([…] stoichiometry); supported by thermal shift (about […] degree Tm increase) and CD; format: binding

Kd [1] [µM] | Kd [2] [µM] | Compound
60 ± 10 | – | CC(C)(COP(=O)(O)OP(=O)(O)OC[C@H]1O[C@@H](n2cnc3c(N)ncnc32)[C@H](O)[C@@H]1OP(=O)(O)O)[C@@H](O)C(=O)NCCC(=O)NCCS [CoA]
– | 10 ± 0.01 | CCCCCCCC/C=C\CCCCCCCC(=O)SCCNC(=O)CCNC(=O)[C@H](O)C(C)(C)COP(=O)(O)OP(=O)(O)OC[C@H]1O[C@@H](n2cnc3c(N)ncnc32)[C@H](O)[C@@H]1OP(=O)(O)O [oleoyl-CoA]
